Measured values reported in patent US20220370451A1, “INHIBITORS OF HUMAN IMMUNODEFICIENCY VIRUS REPLICATION” (VIIV HEALTHCARE UK ( No. 5) LIMITED, priority 2019, published 2022).

Assays:
recombinant NL4-3 virus = assay: HIV cell culture assay (luciferase reporter antiviral activity); type: cell-based; conditions: Human immunodeficiency virus 1, NL43, MT2
Method: HIV cell culture assay—MT=2 cells, 293T cells and the proviral DNA clone of NL4-3 virus were obtained from the NIH AIDS Research and Reference Reagent Program. MT=2 cells were propagated in RPMI 1640 media supplemented with 10% heat inactivated fetal bovine serum (FBS), […] penicillin G and up to 100 units/mL streptomycin. The 293T cells were propagated in DMEM media supplemented with 10% heat inactivated FBS, […] penicillin G and […] streptomycin. A recombinant NL4-3 proviral clone, in which a section of the nef gene was replaced with the Renilla luciferase gene, was used to make the reference virus used in these studies. The recombinant virus was prepared through transfection of the recombinant NL4-3 proviral clone into 293T cells using Transit-293 Transfection Reagent from Mirus Bio LLC (Madison, Wis.). Supernatent was harvested after 2-3 days and the amount of virus present was titered in MT=2 cells using luciferase enzyme activity as a marker by measuring luciferase enzyme activity. Luciferase was quantitated using the EnduRen Live Cell Substrate from Promega (Madison, Wis.). Antiviral activities of compounds toward the recombinant virus were quantified by measuring luciferase activity in MT=2 cells infected for 4-5 days with the recombinant virus in the presence of serial dilutions of the compound.
The 50% effective concentration (EC50) was calculated by using the exponential form of the median effect equation where (Fa)=1/[1+(ED50/drug conc.)m] (Johnson V A, Byington RT. Infectivity Assay. In Techniques in HIV Research. ed. Aldovini A, Walker B D. 71-76. New York: Stockton Press.1990). The 50% inhibitory concentration (EC50) was calculated by using the exponential form of the median effect equation where percent inhibition=1/[1+(EC50/drug concentration)m], where m is a parameter that reflects the slope of the concentration-response curve.

[1] = Compound cytotoxicity, XTT-based colorimetric assay; type: cell-based; conditions: human; uninfected MT2 cells, day 4, XTT
Method: Compound cytotoxicity and the corresponding CC50 values were determined using the same protocol as described in the antiviral assay except that uninfected cells were used. Cytotoxicity was assessed on day 4 in uninfected MT2 cells by using a XTT (2,3-bis[2-Methoxy-4-nitro-5-sulfophenyl]-2H-tetrazolium-5-carboxyanilide inner salt)-based colorimetric assay (Sigma-Aldrich, St Louis, Mo.).

Row | Compound | EC50 (recombinant NL4-3 virus) [nM] | CC50 at 4 days [1] [nM]
1 | Cc1cc(C)nc(-c2ccc3c(=O)n(-c4ccc(Cl)c5c(NS(C)(=O)=O)nn(C)c45)c([C@H](Cc4cc(F)cc(F)c4)NC(=O)Cn4nc(C5CC5)c5ccccc54)nc3c2)n1 (atropisomer, axis not shown; (P)) [Example 4, (S)-N-(1-((3P)-3-(4-chloro-1-methyl-3-(methylsulfonamido)-1H-indazol-7-yl)-7-(4,6-dimethylpyrimidin-2-yl)-4-oxo-3,4-dihydroquinazolin-2-yl)-2-(3,5-difluorophenyl)ethyl)-2-(3-cyclopropyl-1H-indazol-1-yl)acetamide] | 0.91 | > 500
2 | Cc1nccnc1-c1ccc2c(=O)n(-c3ccc(Cl)c4c(NS(C)(=O)=O)nn(C)c34)c([C@H](Cc3cc(F)cc(F)c3)NC(=O)Cn3ccc(C4CCC4)n3)nc2c1 (atropisomer, axis not shown; (P)) [Example 11, (S)-N-(1-((3P)-3-(4-chloro-1-methyl-3-(methylsulfonamido)-1H-indazol-7-yl)-7-(3-methylpyrazin-2-yl)-4-oxo-3,4-dihydroquinazolin-2-yl)-2-(3,5-difluorophenyl)ethyl)-2-(3-cyclobutyl-1H-pyrazol-1-yl)acetamide] | 0.39 | > 500
3 | CC(C)(C(=O)N[C@@H](Cc1cc(F)cc(F)c1)c1nc2nc(-c3ccccc3F)ccc2c(=O)n1-c1ccc(Cl)c2c(NS(C)(=O)=O)nn(CC(F)(F)F)c12)n1ccc(C2CC2)n1 (atropisomer, axis not shown; (P)) [Example 22, (S)-N-(1-((3P)-3-(4-chloro-3-(methylsulfonamido)-1-(2,2,2-trifluoroethyl)-1H-indazol-7-yl)-7-(2-fluorophenyl)-4-oxo-3,4-dihydropyrido[2,3-d]pyrimidin-2-yl)-2-(3,5-difluorophenyl)ethyl)-2-(3-cyclopropyl-1H-pyrazol-1-yl)-2-methylpropanamide] | 0.8 | > 500
4 | CS(=O)(=O)Nc1nn(CC(F)F)c2c(-n3c([C@H](Cc4cc(F)cc(F)c4)NC(=O)Cn4nc(C5CC5)c5ccccc54)nc4nc(-c5ccccc5F)ccc4c3=O)ccc(Cl)c12 (atropisomer, axis not shown; (P)) [Example 18, (S)-N-(1-((3P)-3-(4-chloro-1-(2,2-difluoroethyl)-3-(methylsulfonamido)-1H-indazol-7-yl)-7-(2-fluorophenyl)-4-oxo-3,4-dihydropyrido[2,3-d]pyrimidin-2-yl)-2-(3,5-difluorophenyl)ethyl)-2-(3-cyclopropyl-1H-indazol-1-yl)acetamide] | 0.17 | > 500
5 | Cc1nccnc1-c1ccc2c(=O)n(-c3ccc(Cl)c4c(NS(C)(=O)=O)nn(C)c34)c([C@H](Cc3cc(F)cc(F)c3)NC(=O)Cn3nc(C4CC4)cc3C)nc2c1 (atropisomer, axis not shown; (P)) [Example 10, (S)-N-(1-((3P)-3-(4-chloro-1-methyl-3-(methylsulfonamido)-1H-indazol-7-yl)-7-(3-methylpyrazin-2-yl)-4-oxo-3,4-dihydroquinazolin-2-yl)-2-(3,5-difluorophenyl)ethyl)-2-(3-cyclopropyl-5-methyl-1H-pyrazol-1-yl)acetamide] | 0.21 | > 500
6 | CS(=O)(=O)Nc1nn(CC(F)F)c2c(-n3c([C@H](Cc4cc(F)cc(F)c4)NC(=O)Cn4nc(C5CC5)cc4C(F)F)nc4nc(-c5ccccc5F)ccc4c3=O)ccc(Cl)c12 (atropisomer, axis not shown; (P)) [Example 17, (S)-N-(1-((3P)-3-(4-chloro-1-(2,2-difluoroethyl)-3-(methylsulfonamido)-1H-indazol-7-yl)-7-(2-fluorophenyl)-4-oxo-3,4-dihydropyrido[2,3-d]pyrimidin-2-yl)-2-(3,5-difluorophenyl)ethyl)-2-(3-cyclopropyl-5-(difluoromethyl)-1H-pyrazol-1-yl)acetamide] | 0.52 | > 500
7 | CS(=O)(=O)Nc1nn(CC(F)F)c2c(-n3c([C@H](Cc4cc(F)cc(F)c4)NC(=O)Cn4nc(C(F)F)cc4C4CC4)nc4nc(-c5ccccc5F)ccc4c3=O)ccc(Cl)c12 (atropisomer, axis not shown; (P)) [Example 16] | 0.37 | > 500
8 | Cc1cc(C)nc(-c2ccc3c(=O)n(-c4ccc(Cl)c5c(NS(C)(=O)=O)nn(C)c45)c([C@H](Cc4cc(F)cc(F)c4)NC(=O)Cn4nc(C(F)(F)F)cc4C(F)(F)F)nc3c2)n1 (atropisomer, axis not shown; (P)) [Example 3, (S)-2-(3,5-bis(trifluoromethyl)-1H-pyrazol-1-yl)-N-(1-((3P)-3-(4-chloro-1-methyl-3-(methylsulfonamido)-1H-indazol-7-yl)-7-(4,6-dimethylpyrimidin-2-yl)-4-oxo-3,4-dihydroquinazolin-2-yl)-2-(3,5-difluorophenyl)ethyl)acetamide] | 3.6 | > 500
9 | CC(C)[C@H](C(=O)N[C@@H](Cc1cc(F)cc(F)c1)c1nc2nc(-c3ccccc3F)ccc2c(=O)n1-c1ccc(Cl)c2c(NS(C)(=O)=O)nn(CC(F)(F)F)c12)n1ccc(C2CC2)n1 (atropisomer, axis not shown; (P)) [Example 26, N-((S)-1-((3P)-3-(4-chloro-3-(methylsulfonamido)-1-(2,2,2-trifluoroethyl)-1H-indazol-7-yl)-7-(2-fluorophenyl)-4-oxo-3,4-dihydropyrido[2,3-d]pyrimidin-2-yl)-2-(3,5-difluorophenyl)ethyl)-2-(3-cyclopropyl-1H-pyrazol-1-yl)-3-methylbutanamide] | 1.9 | > 500
10 | Cc1nccnc1-c1ccc2c(=O)n(-c3ccc(Cl)c4c(NS(C)(=O)=O)nn(C)c34)c([C@H](Cc3cc(F)cc(F)c3)NC(=O)Cn3ccc(C(C)(C)C)n3)nc2c1 (atropisomer, axis not shown; (P)) [Example 5, (S)-2-(3-(tert-butyl)-1H-pyrazol-1-yl)-N-(1-((3P)-3-(4-chloro-1-methyl-3-(methylsulfonamido)-1H-indazol-7-yl)-7-(3-methylpyrazin-2-yl)-4-oxo-3,4-dihydroquinazolin-2-yl)-2-(3,5-difluorophenyl)ethyl)acetamide] | 0.65 | > 500
11 | Cc1nccnc1-c1ccc2c(=O)n(-c3ccc(Cl)c4c(NS(C)(=O)=O)nn(C)c34)c([C@H](Cc3cc(F)cc(F)c3)NC(=O)Cn3nc(C(F)(F)F)cc3C)nc2c1 (atropisomer, axis not shown; (P)) [Example 12, (S)-N-(1-((3P)-3-(4-chloro-1-methyl-3-(methylsulfonamido)-1H-indazol-7-yl)-7-(3-methylpyrazin-2-yl)-4-oxo-3,4-dihydroquinazolin-2-yl)-2-(3,5-difluorophenyl)ethyl)-2-(5-methyl-3-(trifluoromethyl)-1H-pyrazol-1-yl)acetamide] | 0.49 | > 500
12 | O=C(Cn1nc(C2CC2)c2ccccc21)N[C@@H](Cc1cc(F)cc(F)c1)c1nc2nc(-c3ccccc3F)ccc2c(=O)n1-c1ccc(Cl)c2c(NS(=O)(=O)C3CC3)nn(CC(F)F)c12 (atropisomer, axis not shown; (P)) [Example 13, (S)-N-(1-((3P)-3-(4-chloro-3-(cyclopropanesulfonamido)-1-(2,2-difluoroethyl)-1H-indazol-7-yl)-7-(2-fluorophenyl)-4-oxo-3,4-dihydropyrido[2,3-d]pyrimidin-2-yl)-2-(3,5-difluorophenyl)ethyl)-2-(3-cyclopropyl-1H-indazol-1-yl)acetamide] | 0.47 | > 500
13 | Cc1nccnc1-c1ccc2c(=O)n(-c3ccc(Cl)c4c(NS(C)(=O)=O)nn(C)c34)c([C@H](Cc3cc(F)cc(F)c3)NC(=O)Cn3nc(C(F)(F)F)cc3C(F)(F)F)nc2c1 (atropisomer, axis not shown; (P)) [Example 1, (S)-2-(3,5-bis(trifluoromethyl)-1H-pyrazol-1-yl)-N-(1-((3P)-3-(4-chloro-1-methyl-3-(methylsulfonamido)-1H-indazol-7-yl)-7-(3-methylpyrazin-2-yl)-4-oxo-3,4-dihydroquinazolin-2-yl)-2-(3,5-difluorophenyl)ethyl)acetamide] | 1.9 | > 500
14 | CC(C)[C@H](C(=O)N[C@@H](Cc1cc(F)cc(F)c1)c1nc2nc(-c3ccccc3F)ccc2c(=O)n1-c1ccc(Cl)c2c(NS(=O)(=O)C3CC3)nn(CC(F)F)c12)n1ccc(C2CC2)n1 (atropisomer, axis not shown; (P)) [Example 24, N-((S)-1-((3P)-3-(4-chloro-3-(cyclopropanesulfonamido)-1-(2,2-difluoroethyl)-1H-indazol-7-yl)-7-(2-fluorophenyl)-4-oxo-3,4-dihydropyrido[2,3-d]pyrimidin-2-yl)-2-(3,5-difluorophenyl)ethyl)-2-(3-cyclopropyl-1H-pyrazol-1-yl)-3-methylbutanamide] | 3.9 | > 500
